Measured values: article PMC5847527, “Identification of a novel 2-oxindole fluorinated derivative as in vivo antitumor agent for prostate cancer acting via AMPK activation” (Scientific Reports, 2018)

How the values were obtained:
p21 = p21 level by Western blot in PC-3 and LNCaP cells; format: cell-based, human
Protocol: Figure 4 Cell Cycle analysis in 8c-treated prostate cancer cells. (A) PC-3 and LNCaP cells were treated with compound 8c for 24 hours and cell cycle analysis was analyzed by flow cytometry using Propidium Iodide (PI). Percentage of cells in subG0, G1, S, and G2/M phases is indicated in the histogram. (B) Levels of Cyclin D1, p-p53, p53, p21 and cleaved Caspase 3 (17 kDa fragment) were determined by Western blot. Upper panel, representative Western blot of two different experiments. β-tubulin (β-Tub) serves as a loading control. […]
Cyclin D1 activity is modulated by several inhibitors such as p21 which negatively regulate cell cycle progression by interacting with cyclin dependent kinases (cdks). […] To further study the role of compound 8c in cell cycle, we determined the expression of p21, p53 and the levels of cleaved caspase 3 in the prostate cells. P53 was only determined in LNCaP cells since PC-3 cells are p53-negative[40].
Cells were lysed in Lysis buffer (50 mM Tris pH 7.4, 0.8 M NaCl, 5 mM MgCl2, 0.1% Triton X-100) containing Protease Inhibitor and Phosphatase inhibitor Cocktails (Roche, Basel, Switzerland). Protein concentrations were measured by BioRad™ protein assay kit (Richmond, CA, USA). […] Films were analyzed by densitometry. […]

Androgen Receptor (AR) = experiment: Androgen Receptor expression by Western blot in LNCaP cells; format: cell-based, human; settings: 25 µM, 24 hours
Protocol: Figure 5 AMPK activation by compound 8c in prostate cancer cells. (A) PC-3 and LNCaP cells were treated with vehicle, 25 µM compound 8c, 25 µM compound 8c + 5 μM Dorsomorphin (8c + D) or 5 μM Dorsomorphin (D), for 1 hour or 24 hours and levels of the phosphorylated AMPK (pAMPK), phosphorylated ACC (pACC), phosphorylated Raptor (pRaptor) forms and HIF1α were determined by Western blot. Upper panel, representative Western blot of three different experiments. β-tubulin (β-Tub) serves as a loading control. Lower panel, densitometric analyses of bands represented as the mean of the ratio pAMPK/AMPK or pACC/ACC. (B) Cell viability monitored by MTT assay in PC-3 and LNCaP cells treated with vehicle, 25 µM and 50 μM compound 8c alone or in the presence of 5 μM Dorsomorphin or transfected with control siRNA (siC) or α1AMPK-selective siRNA (siAMPK). (C) LNCaP cells were treated with vehicle, 25 µM compound 8c, 25 µM compound 8c + 5 μM Dorsomorphin (8c + D) or 5 μM Dorsomorphin (D), for 24 hours and levels of Androgen Receptor (AR), Prostate specific antigen (PSA) and Prostate specific membrane antigen (PSMA) were determined by Western blot.Values were normalized with the control and represent the mean ± SD of at least three independent experiments. *p < 0.05 and **p < 0.01 compared to control and ^#p < 0.05 and ^##p < 0.01 compared with 8c-treated group by the Student’s t-test. […]

Structure (SMILES): O=C1Nc2ccccc2C1(F)Cc1ccc(-c2ccccc2)o1 (centres unmarked) [Compound 8c, 3-fluoro-3-((5-phenylfuran-2-yl)methyl)indolin-2-one]
- p21 protein level (p21): remarkably increase in p21 protein
- expression of AR (Androgen Receptor (AR)): markedly reduced the expression of AR
